The values below come from US20130102595A1 (Curis, Inc., priority 2011, published 2013).

The target of data set [1] is T1, PI3Kδ (p110δ/p85α) (Homo sapiens, UniProt O00329).
T1 construct: GST (N); made in house; host or cells: Baculovirus-infected Sf9 cells
Put plainly: PI3Kδ ADP-Glo assay. The note with it: 20 μM PIP2, 10 μM ATP, 90 minutes. It is filed as biochemical. How it is done:
(c) an In Vitro Assay which Determines the Ability of a Test Compound to Inhibit PI3Kδ.
Activity of PI3Kδ was measured using ADP-Glo assay from Promega. PI3Kδ, a complex of N-terminal GST-tagged recombinant full-length human p110δ (GenBank, Accession No. NM_005026) and untagged recombinant full length human p85α (GenBank Accession No. XM—043865) were co-expressed in a Baculovirus infected Sf9 cell expression system. The ADP-Glo assay was performed to measure the amount of ADP generated from ATP hydrolysis coupled with PIP2 phosphorylation by the purified recombinant PI3Kδ (p110δ/p85α). PI3Kδ was incubated with 20 μM PIP2 substrate in the reaction buffer (10 mM Tris-HCl, pH 7.5, 50 mM NaCl, 5 mM MgCl2, 10 μM ATP and 0.5% DMSO) for 90 minutes at room temperature. The ADP generated was then detected by ADP-Glo assay from Promega, a luminescent ADP detection assay. The ADP-Glo assay is performed in two steps; first, after the kinase reaction, ADP-Glo Reagent is added to terminate the kinase reaction and deplete the remaining ATP. Second, the Kinase Detection Reagent is added to simultaneously convert ADP to ATP and allow the newly synthesized ATP to be measured using a luciferase/luciferin reaction.
For orientation: ADP-Glo turns the ADP formed in a reaction into a luminescent signal.

The subject of data set [2] is LN-Cap. Nature of the data set: Cell proliferation assay (CellTiter-Glo). It is filed as cell-based. The following applies: Homo sapiens, LNCaP; Prostate; 72 hours, 0.5% fetal bovine serum; read-out: antiproliferative activity IC50, LN-Cap. An outline of the steps: (§1)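 Plate 5,000 to 10,000 cells per well with compound at several concentrations. Incubate 72 hours in medium with 0.5% fetal bovine serum. Add lysis/luciferase reagent, incubate 30 minutes, and measure luminescence as ATP content.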

Data set [3] concerns OVCAR-5. Nature of the data set: Cell proliferation assay (CellTiter-Glo). It is filed as cell-based. The note with it: Homo sapiens, Ovarian, 72 hours, 0.5% fetal bovine serum, read-out: antiproliferative activity IC50, OVCAR-5. An outline of the steps: as §1
For orientation: ATP-based viability assays read luminescence as a measure of living cells.

For data set [4], the system named is PC-3. Put plainly: Cell proliferation assay (CellTiter-Glo). The note with it: Homo sapiens, Prostate, 72 hours, 0.5% fetal bovine serum, read-out: antiproliferative activity IC50, PC-3. It is filed as cell-based. An outline of the steps: as §1

T1 sequence (O00329 whole entry): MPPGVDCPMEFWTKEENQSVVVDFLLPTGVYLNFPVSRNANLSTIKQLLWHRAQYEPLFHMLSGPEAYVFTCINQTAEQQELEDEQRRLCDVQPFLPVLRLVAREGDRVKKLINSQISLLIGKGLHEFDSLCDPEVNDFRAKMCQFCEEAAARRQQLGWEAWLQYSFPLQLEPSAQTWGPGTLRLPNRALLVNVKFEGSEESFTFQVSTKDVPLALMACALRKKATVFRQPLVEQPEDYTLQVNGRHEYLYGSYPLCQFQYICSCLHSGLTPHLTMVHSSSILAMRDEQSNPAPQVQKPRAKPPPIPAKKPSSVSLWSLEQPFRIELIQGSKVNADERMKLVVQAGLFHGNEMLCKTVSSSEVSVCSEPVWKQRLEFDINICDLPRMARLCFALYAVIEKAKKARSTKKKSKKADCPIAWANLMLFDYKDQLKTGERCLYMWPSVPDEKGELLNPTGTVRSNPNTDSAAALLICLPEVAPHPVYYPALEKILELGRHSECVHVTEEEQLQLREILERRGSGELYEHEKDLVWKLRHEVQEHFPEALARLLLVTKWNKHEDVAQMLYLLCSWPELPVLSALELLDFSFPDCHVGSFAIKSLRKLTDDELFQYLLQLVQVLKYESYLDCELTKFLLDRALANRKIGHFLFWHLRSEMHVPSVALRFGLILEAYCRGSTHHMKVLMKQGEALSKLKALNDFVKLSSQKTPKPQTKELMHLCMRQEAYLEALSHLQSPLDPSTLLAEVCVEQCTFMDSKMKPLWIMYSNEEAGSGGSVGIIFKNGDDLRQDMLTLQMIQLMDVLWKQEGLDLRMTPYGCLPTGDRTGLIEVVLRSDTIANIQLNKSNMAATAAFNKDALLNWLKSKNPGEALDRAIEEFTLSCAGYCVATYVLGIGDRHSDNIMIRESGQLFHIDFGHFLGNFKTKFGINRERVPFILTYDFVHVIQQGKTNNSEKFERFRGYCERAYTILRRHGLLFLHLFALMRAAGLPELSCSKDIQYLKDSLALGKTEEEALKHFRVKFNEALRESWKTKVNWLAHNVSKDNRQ
T1 sequence (P27986 whole entry partner): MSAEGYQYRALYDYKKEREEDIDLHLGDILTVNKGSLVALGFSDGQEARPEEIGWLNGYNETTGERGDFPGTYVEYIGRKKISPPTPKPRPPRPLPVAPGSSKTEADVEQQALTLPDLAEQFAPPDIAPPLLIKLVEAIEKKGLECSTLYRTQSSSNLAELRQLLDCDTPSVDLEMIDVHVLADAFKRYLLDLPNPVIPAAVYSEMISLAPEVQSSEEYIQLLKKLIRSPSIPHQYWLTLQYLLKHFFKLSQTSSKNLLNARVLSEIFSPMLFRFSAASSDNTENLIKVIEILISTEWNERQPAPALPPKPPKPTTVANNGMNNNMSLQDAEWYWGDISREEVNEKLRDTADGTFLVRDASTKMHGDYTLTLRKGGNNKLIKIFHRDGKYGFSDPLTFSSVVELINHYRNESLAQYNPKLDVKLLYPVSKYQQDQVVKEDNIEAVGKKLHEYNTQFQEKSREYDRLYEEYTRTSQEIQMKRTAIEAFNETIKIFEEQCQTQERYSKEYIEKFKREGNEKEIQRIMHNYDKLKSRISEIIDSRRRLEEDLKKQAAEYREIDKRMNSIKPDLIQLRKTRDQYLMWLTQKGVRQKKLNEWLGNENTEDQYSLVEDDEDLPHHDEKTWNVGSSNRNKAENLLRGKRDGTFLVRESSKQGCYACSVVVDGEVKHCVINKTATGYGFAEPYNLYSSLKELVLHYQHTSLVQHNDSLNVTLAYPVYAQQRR

What is called IC50 is the point on the concentration scale where inhibition reaches its midpoint. What is called melting point is the temperature of the solid-liquid transition. Turning to `CN(Cc1cc2nc(-c3cccc4[nH]ncc34)nc(N3CCOCC3)c2s1)c1ncc(C(=O)NO)cn1` [Compound 54, 2-(((2-(1H-indazol-4-yl)-4-morpholinothieno[3,2-d]pyrimidin-6-yl)methyl)(methyl)amino)-N-hydroxypyrimidine-5-carboxamide], the melting point is 197 to 200 °C. Also, the IC50 in data set [1] is less than 100 nM.
For `CNc1ccc(-c2nc(N3CCOCC3)c3sc(CN(C)c4ncc(C(=O)NO)cn4)cc3n2)cn1` [Compound 111, N-Hydroxy-2-(methyl((2-(6-(methylamino)pyridin-3-yl)-4-morpholinothieno[3,2-d]pyrimidin-6-yl)methyl)amino)pyrimidine-5-carboxamide], in data set [1], the IC50 was less than 100 nM.
As for `CN(Cc1cc2nc(-c3ccc(N)cc3)nc(N3CCOCC3)c2s1)c1ncc(C(=O)NO)cn1` [Compound 150, 2-(((2-(4-aminophenyl)-4-morpholinothieno[3,2-d]pyrimidin-6-yl)methyl)(methyl)amino)-N-hydroxypyrimidine-5-carboxamide], the half-maximal inhibitory concentration (IC50) was less than 10 nM in data set [2], less than 10 nM in data set [3] and 10 to 100 nM in data set [4].
